These results are taken from publication PMC7560626, “Active site competition is the mechanism for the inhibition of lipoprotein-associated phospholipase A2 by detergent micelles or lipoproteins and for the efficacy reduction of darapladib” (Scientific Reports, 2020).

Where two headings read alike, the source gives them in different places.

The conditions of data set [1]: in Fig. 1a; source not stated; cited from earlier work.
Data set [2] in a line: Distribution in bulk phase, detergent micelles and lipoproteins by SEC (TSKgel G3000SWXL). It is filed as physicochemical. How it is done:
Figure 8 Distribution of 14:0 NPS-PC and darapladib under different conditions. Assay methods are described in Experimental Procedures. (a) Distribution of 14:0 NPS-PC in TBS, pH 7.4, with and without detergents. Twenty µl of 14:0 NPS-PC at 10 µM were resolved by a TSKgel G3000SWXL column in TBS, pH 7.4, containing no detergent, 10 mM CHAPS or 60 µM Tween-20. Absorbance at 260 nm were monitored for 14:0 NPS-PC. Bulk phase is after fraction number 17 or after elution time 17 min. (b) Distribution of darapladib in TBS, pH 7.4, with and without detergents. Forty µl of darapladib in mobile phase buffer at 0.2 µM were resolved by a TSKgel G3000SWXL column in TBS, pH 7.4, containing no detergent, 10 mM CHAPS or 600 µM Tween-20. Relative darapladib concentration in each fraction was shown by inhibition of spiked Lp-PLA2. (c) Distribution of darapladib in TBS, pH 7.4, containing HDL or LDL. Forty µl of 1 mg/ml HDL or LDL with or without 0.2 µM darapladib were resolved by a TSKgel G3000SWXL column in TBS, pH 7.4. Relative darapladib concentration in each fraction was quantitated by inhibition of spiked Lp-PLA2. (d) Distribution of darapladib in human serum. Forty µl of neat human serum with or without 150 µM darapladib under the conditions as indicated were resolved by a TSKgel G3000SWXL column in TBS, pH 7.4. Relative darapladib concentration in each fraction was determined by inhibition of spiked Lp-PLA2.
Fractionation chromatography was carried out on an Akta10 or Akta100 by using a 10 mm × 300 mm Sperose-6 column at ambient temperature with the flow rate of 0.3 ml per minute. Fifty to two hundred µl of serum samples were injected per run depending on the Lp-PLA2 concentrations of the samples after the column was equilibrated with the running buffer (PBS, pH 7.2). Fraction collection was started at 21 min after sample injection and the collection volume was 0.6 ml/tube. Distribution of 14:0 NPS-PC and darapladib were carried out by separation of 20 – 40 µl of samples on a TSKgel G3000SWXL (7.8 mm × 30 cm, 5 µm) in TBS, pH 7.4, with and without detergents using a HPLC at flow rate of 0.8 ml/min. Fractions were collected at 1 min per tube starting at 6 min and ending at 21 min. Signal of 14:0 NPS-PC was detected by monitoring at 260 nm. Darapladib were assayed based on its inhibition of Lp-PLA2 activity. To one hundred µl of fraction, 10 µl of Lp-PLA2 at the concentration of approximately 0.5 µg/ml were added and the mixture was incubated at ambient temperature for 30 min with shaking. Reaction was started by adding 50 µl of mixture of CHAPS, SNS (sodium 1-nonane sulfonate) and 14:0 NPS-PC in buffer of 150 mM HEPES, pH 7.5, containing 12 mM EDTA. The final concentrations of CHAPS, SNS and 14:0 NPS-PC were 5 mM, 10 mM and 50 µM respectively. The hydrolysis reaction was monitored at 405 nm for 5 min. Fractions were also assayed for residual Lp-PLA2 activity by mixing in 100 µl fraction with 50 µl buffer of 150 mM HEPES, pH 7.5, containing 30 mM SNS, 30 mM CHAPS, 12 mM EDTA and 1.6 mM 14:0 NPS-PC.
(In general: In gel filtration, larger molecules generally elute earlier.)

Data set [3] deals with Lp-PLA2. Set-up: method as in PMID 25173516, PMID 24678955. Particulars: 160 mg daily for 12 weeks; cited from earlier work.
The target of data set [4] is T1, Lp-PLA2 (Homo sapiens, UniProt Q13093).
T1 sequence (Q13093 22-441): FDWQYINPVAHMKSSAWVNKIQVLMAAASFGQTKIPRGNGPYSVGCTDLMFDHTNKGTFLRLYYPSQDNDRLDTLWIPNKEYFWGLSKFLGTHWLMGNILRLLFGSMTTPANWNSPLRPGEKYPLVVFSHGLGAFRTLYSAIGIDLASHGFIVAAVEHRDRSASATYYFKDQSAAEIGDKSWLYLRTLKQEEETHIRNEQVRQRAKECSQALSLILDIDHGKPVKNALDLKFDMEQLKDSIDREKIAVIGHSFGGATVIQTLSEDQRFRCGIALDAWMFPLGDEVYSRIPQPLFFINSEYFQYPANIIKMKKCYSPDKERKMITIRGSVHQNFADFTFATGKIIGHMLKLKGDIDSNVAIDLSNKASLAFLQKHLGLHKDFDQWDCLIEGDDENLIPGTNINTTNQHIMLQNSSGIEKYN
As to the kind of experiment: Kinetics of hydrolysis of 14:0 NPS-PC by recombinant Lp-PLA2. Type of data set: biochemical. How it is done: (a) Fitting of kinetic model for hydrolysis of 14:0 NPS-PC in the absence and presence of 10 mM CHAPS. […] Details are in Experiment Procedures. (c) Determination of CMC for 14:0 NPS-PC and CHAPS by anisotropy of polarized fluorescence using fluorescein as probe. Details are in Experiment Procedures.
Lp-PLA2 activity was assayed under different conditions and different methods were used. […] Purified recombinant Lp-PLA2 in storage buffer was diluted into TBS or PBS, pH 7.4–7.6, at the concentration of 1 µg/ml and 20 µl of the solution were used for each reaction. […] Generally, hydrolysis of 14:0 NPS-PC was monitored at 405 nm for 5 min under ambient temperature for all kinetic assays. […] Lp-PLA2 kinetic assays were performed in the same assay buffer with 14:0 NPS-PC concentrations as indicated. Assays were carried out in 96-well plates using a SpectraMax m2e plate reader. Hydrolysis of 14:0 NPS-PC was monitored at 405 nm for 5 min under ambient temperature. Serum Lp-PLA2 activity and mass concentration were measured by using PLAC activity and mass test kits (diaDexus) following the manufacturer's instruction. PLAC mass measurements were performed by manual ELISA and PLAC activity measurements were carried out by the Beckman Coulter AU400 analyzer as described in a previous publication. Twenty or forty μl of the fractionated sample per tube were used, depending on the Lp-PLA2 concentration of the samples. Ten mM CHAPS-modified PLAC ELISA test kits were made by adding solid CHAPS to the assay buffer to the final concentration of 10 mM. The assays follow the same instructions as the unmodified PLAC mass test kits. Other Lp-PLA2 activity assays are as indicated in figures or other experimental sections.

A short description of data set [5]: CMC by polarized fluorescence anisotropy with fluorescein as probe. As to conditions: TBS, pH 7.4. Type of data set: physicochemical. How it is done: CMC of CHAPS and 14:0 NPS-PC were determined by polarized fluorescence anisotropy based on the method by Thorsteinsson et al.[21] with modification in a Varian Cary Eclipse fluorescence spectrophotometer using fluorescein as probe. Fluorescein was dissolved in TBS, pH 7.4, at final concentration of 0.1 µM. Solid CHAPS (control) or 14:0 NPS-PC was dissolved in TBS-fluorescein solution at concentrations indicated in figure and subjected to serial dilution in the same buffer. All fleshly prepared solutions were measured for fluorescence emission at 520 nm (excited at 490 nm) and compared the emission optics for the horizontal orientation to the vertical orientation. The anisotropy ratio of fluorescence intensities was plotted against the concentration incrementation of CHAPS or 14:0 NPS-PC. The anisotropy ratio was calculated as the followings. Anisotropyratior=IVV-G×IVH÷IVV+2×G×IVH where IVV indicates the intensity with vertically polarized excitation and vertical polarization on the detected emission. IVH indicates the intensity when using a vertical polarizer on the excitation and horizontal polarizer on the emission. G is a grating factor used as a correction for the instrument’s differential transmission of the two orthogonal vector orientations.
A general note: In fluorescence polarisation assays a small probe gives low polarisation when free and higher when bound to something large.

Take Triton X-100: in data set [1], the CMC was 0.3 mM.

With `C[C@@H]1CC[C@@]2(OC1)O[C@H]1[C@@H](O)[C@H]3[C@@H]4CC[C@H]5C[C@@H](O[C@@H]6O[C@H](CO)[C@H](O[C@@H]7O[C@H](CO)[C@@H](O)[C@H](O[C@@H]8OC[C@@H](O)[C@H](O)[C@H]8O)[C@H]7O[C@@H]7O[C@H](CO)[C@H](O)[C@H](O[C@@H]8O[C@H](CO)[C@@H](O)[C@H](O)[C@H]8O)[C@H]7O)[C@H](O)[C@H]6O)[C@H](O)C[C@]5(C)[C@H]4CC[C@]3(C)[C@H]1[C@@H]2C` [Digitonin], in data set [1], the CMC is on record as 0.09 mM.

As to `CCN(CC)CCN(Cc1ccc(-c2ccc(C(F)(F)F)cc2)cc1)C(=O)Cn1c(SCc2ccc(F)cc2)nc(=O)c2c1CCC2` [darapladib], the “detection in TBS buffer (solubility)” value in data set [2] (0.2 µM in TBS pH 7.4, absence of detergents) was “not detectable”. In data set [2] (0.2 µM in TBS pH 7.4 with 10 mM CHAPS or 0.6 mM Tween-20), the solubilization by detergents entry is “solubilized”. For the same compound, the “reduction of Lp-PLA2 activity” value in the data set with Lp-PLA2 [3] is recorded as “approximately 66%”.

Regarding Tween-20, on Lp-PLA2 [4] (Lineweaver–Burk plots at different Tween-20 concentrations), the “mechanism of inhibition of Lp-PLA2” value was “competitive”. In data set [1], the CMC is given as 0.06 mM.

On to `C[C@H](CCC(=O)NCCC[N+](C)(C)CCCS(=O)(=O)[O-])[C@H]1CC[C@H]2[C@@H]3[C@H](O)C[C@@H]4C[C@H](O)CC[C@]4(C)[C@H]3C[C@H](O)[C@]12C` [CHAPS, 3-[(3-Cholamidopropyl)dimethylammonio]-1-propanesulfonate], for which the CMC was 5 to 10 mM in data set [5] and 6 to 10 mM in data set [1].

A word on the Km: it is the substrate concentration at which the rate is half of its maximum. In general, Vmax refers to the top rate of the reaction or transport when substrate is in excess. `CCCCCCCCCCCCCC(=O)OC[C@H](COP(=O)([O-])OCC[N+](C)(C)C)OC(=O)CCC(=O)Oc1ccc([N+](=O)[O-])cc1` [14:0 NPS-PC, 1-myristoyl-2-(4-nitrophenylsuccinyl)-sn-glycero-3-phosphocholine] yielded a CMC in data set [5] of 0.5 to 1 mM. For the same compound, the “form in bulk phase” value in data set [2] (10 µM in TBS pH 7.4, absence of detergents) was “existed only as monomer”. For the same compound, the “monomeric fraction detected in bulk” value in data set [2] (10 µM in TBS pH 7.4 in presence of detergents) was “Less than 5%”. The “fraction in mixed micelles” value in data set [2] (10 µM in TBS pH 7.4 with 10 mM CHAPS or 60 µM Tween-20) was above 95%. Moreover, the “Hill slope of the substrate titration curve” value on Lp-PLA2 [4] (absence of 10 mM CHAPS) is on record as “approximately 2.0”; at Lp-PLA2 [4] (presence of 10 mM CHAPS), “approximately 1.0”. The Michaelis constant (Km) on Lp-PLA2 [4] (with 10 mM CHAPS) is 238 ± 11.7 µM; at Lp-PLA2 [4] (without CHAPS) it was 187 ± 18.5 µM. Besides, the maximal velocity (Vmax) came out at 187 ± 2 nmol/min/mL on Lp-PLA2 [4] (with 10 mM CHAPS) and 191 ± 5 nmol/min/mL on Lp-PLA2 [4] (without CHAPS).
